According to the supplement of paper PMC10307832:

Assays:
Experiment in all cases: relative viability (nuclei count vs DMSO), 5 days (fraction); higher = more cells survive
[1] = compound: Cc1ccc2nc(NCCN)c3ncc(C)n3c2c1 + CC(C)C[C@H](NC(=O)[C@H](Cc1ccccc1)NC(=O)c1cnccn1)B(O)O [Bortezomib] (partner 0.002 µM)
Procedure, shortened: (§1)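 For relative viability, nuclei counts in treated wells were divided by those in vehicle wells. Lung cancer cell lines had been pin-tool dosed in 1536-well plates the day after seeding and cultured for 5 days, then fixed and stained in one step (final 0.05% Triton X-100, 1% formaldehyde, 1 ug/ml Hoechst) and imaged at 4×. Doses were one drug alone or a fixed anchor-drug dose plus five library-drug doses (not always all listed) in √10 steps, and values are duplicate-plate medians.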

[2] = compound: Cc1ccc2nc(NCCN)c3ncc(C)n3c2c1 + CS(=O)(=O)N1CCN(Cc2cc3nc(-c4cccc5[nH]ncc45)nc(N4CCOCC4)c3s2)CC1 [Pictilisib] (partner 1 µM)
Procedure, shortened: as §1

[3] = compound: Cc1ccc2nc(NCCN)c3ncc(C)n3c2c1 + O=C(c1cc(Cc2n[nH]c(=O)c3ccccc23)ccc1F)N1CCN(C(=O)C2CC2)CC1 [Olaparib] (partner 8 µM)
Procedure, shortened: as §1

Salubrinal + Dasatinib = compound: O=C(/C=C/c1ccccc1)NC(NC(=S)Nc1cccc2cccnc12)C(Cl)(Cl)Cl [Salubrinal] + Cc1nc(Nc2ncc(C(=O)Nc3c(C)cccc3Cl)s2)cc(N2CCN(CCO)CC2)n1 [Dasatinib] (partner 0.075 µM)
Procedure, shortened: as §1

| Cell Line | relative viability ([1]; first compound 0.04 µM) | relative viability ([1]; first compound 0.1265 µM) | relative viability ([1]; first compound 0.4 µM) | relative viability ([1]; first compound 1.265 µM) | relative viability ([1]; first compound 4 µM) | relative viability ([2]; first compound 0.04 µM) | relative viability ([2]; first compound 0.1265 µM) | relative viability ([2]; first compound 0.4 µM) | relative viability ([2]; first compound 1.265 µM) | relative viability ([2]; first compound 4 µM) | relative viability ([3]; first compound 0.04 µM) | relative viability ([3]; first compound 0.1265 µM) | relative viability ([3]; first compound 0.4 µM) | relative viability ([3]; first compound 1.265 µM) | relative viability ([3]; first compound 4 µM) | relative viability (Salubrinal + Dasatinib; first compound 0.08 µM) | relative viability (Salubrinal + Dasatinib; first compound 0.253 µM) | relative viability (Salubrinal + Dasatinib; first compound 0.8 µM) | relative viability (Salubrinal + Dasatinib; first compound 2.53 µM) | relative viability (Salubrinal + Dasatinib; first compound 8 µM) |
| --- | --- | --- | --- | --- | --- | --- | --- | --- | --- | --- | --- | --- | --- | --- | --- | --- | --- | --- | --- | --- |
| BEN | 0.929 | 0.789 | 0.849 | 0.834 | 0.868 | 0.628 | 0.584 | 0.596 | 0.481 | 0.556 | 1.17 | 1.18 | 1.07 | 1.04 | 1.24 | 0.34 | 0.406 | 0.397 | 0.313 | 0.308 |
| ChaGo-K-1 | 1.01 | 1 | 1.01 | 0.973 | 0.607 | 0.697 | 0.743 | 0.661 | 0.671 | 0.443 | 0.411 | 0.458 | 0.412 | 0.426 | 0.402 | 0.685 | 0.544 | 0.667 | 0.57 | 0.524 |
| NCI-H322M | 1.29 | 1.1 | 1.24 | 1.18 | 1.27 | 0.521 | 0.566 | 0.571 | 0.512 | 0.503 | 0.698 | 0.816 | 0.881 | 0.796 | 0.638 | 0.267 | 0.24 | 0.256 | 0.265 | 0.274 |
| NCI-H520 | 0.656 | 0.544 | 0.464 | 0.568 | 0.36 | 0.276 | 0.283 | 0.282 | 0.294 | 0.368 | 0.308 | 0.368 | 0.323 | 0.304 | 0.266 | 0.252 | 0.236 | 0.292 | 0.231 | 0.292 |
| ABC-1 | 0.402 | 0.223 | 0.337 | 0.282 | 0.263 | 0.721 | 0.78 | 0.822 | 0.813 | 0.678 | 0.781 | 0.785 | 0.639 | 0.691 | 1.04 | 0.54 | 0.508 | 0.633 | 0.634 | 0.554 |
| NCI-H1666 | 0.878 | 0.8 | 0.762 | 1.03 | 0.689 | 0.372 | 0.478 | 0.402 | 0.554 | 0.449 | 0.719 | 0.755 | 0.751 | 0.76 | 0.749 | 0.845 | 0.721 | 0.799 | 0.806 | 0.613 |
| NCI-H1993 | 1.21 | 1.07 | 0.921 | 1.11 | 0.875 | 0.804 | 0.648 | 0.693 | 0.765 | 0.771 | 1.12 | 0.962 | 0.86 | 0.624 | 1.06 | 0.602 | 0.573 | 0.525 | 0.506 | 0.503 |
| NCI-H1975 | 0.363 | 0.384 | 0.428 | 0.375 | 0.407 | 0.317 | 0.281 | 0.245 | 0.261 | 0.242 | 0.791 | 0.81 | 0.809 | 0.704 | 0.682 | 0.363 | 0.369 | 0.376 | 0.374 | 0.3 |
